{
  "source": "patent US11629121B2",
  "about": "“Benzylideneacetone derivative and use thereof” (KORPHARM CO., LTD., priority 2017, dated 2023)",
  "key": {"[1]": {"system": "HepG2 human liver cancer cell line", "experiment": "MTT assay, cancer cells HepG2", "assay_type": "cell-based", "details": "MTT assay, 48 hours, HepG2", "excerpt": "(§1) The cytotoxicity against normal cells and cancer cells was confirmed using the MTT assay for the novel compounds KP2 to KP8 prepared in Example 1.\n(§2) MTT assay method is as follows:\n(§3) Normal cells (RAW264.7 rat macrophage cell line (osteoblast progenitor cell) and NIH3T3 mouse fibroblast line) and cancer cells (AGS human gastric cancer cell line, A549 human lung cancer cell line, HepG2 human liver cancer cell line, HCT116 human colon cancer cell line, PC3 human prostate cancer Cell line, Caki-1 human kidney cancer cell line, T24 human bladder cancer cell line, HT1080 human fibrosarcoma cell line, B16F10 mouse melanoma cell line) were cultured in 5% CO2 in 96-well plates containing DMEM with 10% FBS (fetal bovine serum). After incubation, KP2 to KP8 and controls (osmundacetone and 4-hydroxybenzalacetone) were added to the cell medium and incubated for 48 hours. Thereafter, 100 μl of MTT (0.5 mg/mL phosphate buffered saline) was added, followed by incubation for 2 hours. 100 μl of DMSO was added to each well, followed by incubation for 10 minutes, and the absorbance was measured at 550 nm using a microplate reader (SPCTRA MAX 340PC, Molecular Devices, USA). Absorbance is calculated by the formula below as an indicator of the number of cells that survived, and reproducibility was confirmed by three experiments.\n(§4) The rate of cell proliferation (%)=OD550(sample)/OD550(control)"}, "[2]": {"system": "osteoclast differentiation from bone marrow cells (RANKL and M-CSF)", "experiment": "TRAP assay, osteoclast differentiation and proliferation", "assay_type": "cell-based, C57BL/6 mice", "details": "TRAP-positive multinucleated cells, mouse bone marrow cells, 6-7 days; read-out: osteoclast differentiation inhibitory activity IC50", "description": "The specific method of the TRAP assay is as follows:\nThe tibia and femur were aseptically excised from 6 to 8 weeks old male C57BL/6 mice, and bone marrow cells were collected aseptically with a syringe (21G, Korea Green Cross). Bone marrow cells were suspended in 500 μl of -MEM medium (Gibco BRL Co.) containing sodium bicarbonate (2.0 g/L), streptomycin (100 mg/L) and penicillin ([…]), and aliquoted into a 48-well plate, and assay was carried out with triplicate. The progenitor cells of osteoclasts, monocytes, were isolated and treated with RANKL and M-CSF, which are differentiation promoters, to differentiate into osteoclasts within 5-7 days.\n1) Sample preparation: KP2 to KP8 (0.5 μM, 1 μM, 5 μM or 10 μM), Fosamax (0.5 μM, 1 μM, 5 μM, or 10 μM) and the like were dissolved in DMSO (dimethylsulfoxide) or sterile distilled water at appropriate concentrations, respectively.\n2) Sample administration: The Samples were continuously administered to the medium at 1:20 (v/v; 25 μL of sample per 500 μL of medium) from the first day of culture of bone marrow cells, and the medium was replaced at 3 days intervals.\n3) Osteoclast differentiation measurement: Osteoclasts were defined as TRAP-positive multinucleated cells stained with TRAP. […] The reaction reagents were stored in the refrigerator until use.\nBone marrow cells were cultured in a medium containing differentiation factors for 6-7 days, and then the medium was removed, washed with PBS, and fixed in PBS containing 10% formalin for 2-5 minutes. After fixed for 1 minute with a 1:1 mixture of ethanol and acetone, and dried. The fixed cells were treated with TRAP staining solution for 60 minutes at 37° C. with light blocking, washed with PBS, and then stained with Hematoxylin.\nAmong the TRAP-positive cells in the microscope field, cells with two or more nuclei were determined as osteoclasts and the number of cells was measured."}, "[3]": {"system": "HT1080 human fibrosarcoma cell line", "experiment": "MTT assay, cancer cells HT1080", "assay_type": "cell-based", "details": "48 hours", "excerpt": "as §1, §2, §3, §4"}, "[4]": {"system": "A549 human lung cancer cell line", "experiment": "MTT assay, cancer cells A549", "assay_type": "cell-based", "details": "MTT assay, 48 hours, A549", "excerpt": "as §1, §2, §3, §4"}, "[5]": {"system": "NIH3T3 mouse fibroblast line", "experiment": "MTT assay, normal cells NIH3T3", "assay_type": "cell-based", "details": "MTT assay, 48 hours, NTH3T3", "excerpt": "as §1, §2, §3, §4"}, "[6]": {"system": "T24 human bladder cancer cell line", "experiment": "MTT assay, cancer cells T24", "assay_type": "cell-based", "details": "MTT assay, 48 hours, T24", "excerpt": "as §1, §2, §3, §4"}, "[7]": {"system": "B16F10 mouse melanoma cell line", "experiment": "MTT assay, cancer cells B16F10", "assay_type": "cell-based", "details": "48 hours, H16F10", "excerpt": "as §1, §2, §3, §4"}, "[8]": {"system": "osteoblasts (mouse MC3T3-E1)", "experiment": "ALP (Alkaline phosphatase) assay, osteoblast activity", "assay_type": "cell-based", "details": "MC3T3-E1, 14 days, percentage against control", "description": "Effect of KP4 to KP6 on proliferation and differentiation of osteoblast were confirmed using ALP (Alkaline phosphatase) assay, a method for measuring osteoblast activity.\nAlkaline phosphatase (ALP), which is present in the cell membranes of osteoblasts, is known as a marker of osteoblast activity and is a regulator of inorganic phosphate transport, cell division or differentiation during calcification. Therefore, ALP activity was measured to determine the effect of the compounds of the present invention on the activity of osteoblasts. ALP activity was indirectly calculated by measuring the amount of p-nitrophenol, which is produced from hydrolysis of p-nitrophenyl phosphate (pNPP, Sigma, St. Louis, Mo., USA) in which ALP act as a catalyst, using a microplate reader at 405 nm wavelength.\nSpecifically, osteoblasts (mouse MC3T3-E1) were aliquoted into a 96-well plate (3×10^3 cells/100 μL/well) with α-MEM medium containing ascorbic acid (50 μg/mL) and 10 mM β-glycerophosphate, a differentiation factors of osteoblast. Then, KP4 to KP6 of the present invention, and osmundacetone were added at a final concentration of 10 μM and 50 μM, followed by changing medium every 72 hours and incubating for 14 days. After 14 days, the culture medium was removed from each well, washed three times with PBS, lysed with 0.2% Nonidet P-40/10 mmol/L MgCl2, and then treated ultrasonic wave with sosonifier cell disrupter (Model W-380, Heat Systems-Ultrasonics Inc., Farmingdale, N.Y.) for 3 minutes. The cell lysate was centrifuged at 1500 g for 10 minutes and the supernatant was collected to measure ALP activity. To account for changes in ALP activity according to cell number differences, total protein levels were measured using bicinchoninic acid (BCA) protein assay kit with bovine serum albumin as the standard protein, and enzyme activity was expressed as a percentage against the control group without the compound treatment."}, "[9]": {"system": "Caki-1 human kidney cancer cell line", "experiment": "MTT assay, cancer cells Caki-1", "assay_type": "cell-based", "details": "48 hours", "excerpt": "as §1, §2, §3, §4"}, "[10]": {"system": "HCT116 human colon cancer cell line", "experiment": "MTT assay, cancer cells HCT116", "assay_type": "cell-based", "details": "MTT assay, 48 hours, HCT116", "excerpt": "as §1, §2, §3, §4"}, "[11]": {"system": "RAW264.7 rat macrophage cell line", "experiment": "MTT assay, normal cells RAW264.7", "assay_type": "cell-based", "details": "MTT assay, 48 hours, RAW264.7", "excerpt": "as §1, §2, §3, §4"}, "[12]": {"system": "AGS human gastric cancer cell line", "experiment": "MTT assay, cancer cells AGS", "assay_type": "cell-based", "details": "48 hours", "excerpt": "as §1, §2, §3, §4"}, "[13]": {"system": "PC3 human prostate cancer Cell line", "experiment": "MTT assay, cancer cells PC3", "assay_type": "cell-based", "details": "48 hours", "excerpt": "as §1, §2, §3, §4"}},
  "data": [
    {"smiles": "CC(=O)/C=C/c1ccc(O)c(O)c1", "note": "[Osmundacetone, reference compound]", "values": [
      {"measurement": "LD63 Cancer cell HepG2", "setting": "[1]", "value": ">5000", "unit": "µM"},
      {"measurement": "IC50", "setting": "[2]", "value": 8, "unit": "µM"},
      {"measurement": "LD63 Cancer cell HT1080", "setting": "[3]", "value": ">5000", "unit": "µM"},
      {"measurement": "LD63 Cancer cell A549", "setting": "[4]", "value": ">5000", "unit": "µM"},
      {"measurement": "LD50 Normal cells NTH3T3", "setting": "[5]", "value": ">5000", "unit": "µM"},
      {"measurement": "LD63 Cancer cell T24", "setting": "[6]", "value": "2000 ± 250", "unit": "µM"},
      {"measurement": "Cytotoxicity, B16F10 cells", "setting": "[7]", "value": "64.9 ± 59", "unit": "µM"},
      {"measurement": "% Activation of ALP activity", "setting": "[8]; 10 μM", "value": "115 ± 9.4", "unit": "%"},
      {"measurement": "% Activation of ALP activity", "setting": "[8]; 50 μM", "value": "279 ± 61", "unit": "%"},
      {"measurement": "LD63 Cancer cell Caki-1", "setting": "[9]", "value": "695 ± 14", "unit": "µM"},
      {"measurement": "LD63 Cancer cell HCT116", "setting": "[10]", "value": "689 ± 27", "unit": "µM"},
      {"measurement": "LD50 Normal cells RAW264.7", "setting": "[11]", "value": "529 ± 41", "unit": "µM"},
      {"measurement": "LD63 Cancer cell AGS", "setting": "[12]", "value": "56.1 ± 2.1", "unit": "µM"},
      {"measurement": "LD63 Cancer cell PC3", "setting": "[13]", "value": "60.6 ± 14", "unit": "µM"}
    ]}
  ]
}
